Format in all cases: biochemical
For one assay, the target named is CDK1/CCNB1 (Homo sapiens, UniProt P06493). The assay is described as follows: CDK1 homogeneous time-resolved fluorescence (HTRF) kinase assay. Conditions: CDK1/CCNB; x = IC50 >250 nM; read-out: CDK1/CCNB IC50 (>250 nM column). The method, boiled down: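 Kinase activity is measured as Lance signal (665 nm, or 665/615 nm ratio) from europium-labelled anti-phospho-Thr37/46 antibody binding ULight-4E-BP1 peptide. Reactions contain 0.5 nM enzyme, 1 mM ATP, 1% DMSO and run 60 min at 23 °C before EDTA quench.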
Sequence of CDK1/CCNB1 (P06493 whole entry): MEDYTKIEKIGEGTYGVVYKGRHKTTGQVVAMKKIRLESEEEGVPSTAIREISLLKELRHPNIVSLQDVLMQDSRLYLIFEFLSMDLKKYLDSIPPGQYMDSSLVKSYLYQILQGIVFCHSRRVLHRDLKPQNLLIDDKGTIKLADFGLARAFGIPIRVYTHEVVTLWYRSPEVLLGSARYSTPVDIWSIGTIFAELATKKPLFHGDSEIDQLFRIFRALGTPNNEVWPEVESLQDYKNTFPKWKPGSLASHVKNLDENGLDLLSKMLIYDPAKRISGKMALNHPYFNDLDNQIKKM
Sequence of CDK1/CCNB1 (P14635 whole entry partner): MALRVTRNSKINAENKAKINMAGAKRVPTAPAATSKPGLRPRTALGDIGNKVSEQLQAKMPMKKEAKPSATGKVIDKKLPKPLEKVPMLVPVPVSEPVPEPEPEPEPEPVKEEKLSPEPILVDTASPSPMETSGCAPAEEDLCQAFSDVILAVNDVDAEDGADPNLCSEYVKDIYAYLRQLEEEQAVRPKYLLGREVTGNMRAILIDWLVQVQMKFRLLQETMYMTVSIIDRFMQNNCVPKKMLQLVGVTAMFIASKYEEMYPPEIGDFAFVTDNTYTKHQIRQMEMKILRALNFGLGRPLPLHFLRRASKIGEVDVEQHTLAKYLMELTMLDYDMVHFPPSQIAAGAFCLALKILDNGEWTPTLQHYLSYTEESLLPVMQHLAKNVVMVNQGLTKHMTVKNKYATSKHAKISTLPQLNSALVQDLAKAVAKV

The target in another assay is CDK4/CCND3 (Homo sapiens, UniProt P11802). In words: CDK4 homogeneous time-resolved fluorescence (HTRF) kinase assay. The settings on record: CDK4/CCND; x = IC50 >250 nM; read-out: CDK4/CCND IC50 (>250 nM column). The procedure, abridged:
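TR-FRET read (665 nm, or 665/615 ratio) of 4E-BP1 Thr37/46 phosphorylation by 1.5 nM CDK4/CCND3 at 1 mM ATP, 50 nM ULight peptide, 1% DMSO. Reaction ran 60 min at 23 °C after 20 min compound–enzyme preincubation. IC50 from 11-point half-log dilutions, top 10 μM.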
In general terms: In TR-FRET formats the signal depends on donor and acceptor labels being close together.

The target of the next assay is CDK6/CCND1 (Homo sapiens, UniProt Q00534). In words: CDK6 homogeneous time-resolved fluorescence (HTRF) kinase assay. The settings on record: CDK6/CCND; x = IC50 >250 nM; read-out: CDK6/CCND IC50 (>250 nM column). The method, boiled down: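 Assay conditions: HEPES buffer containing 10 mM MgCl2, 1 mM EGTA, 2 mM DTT, 0.01% Tween 20; 1 nM CDK6/CCND1, 50 nM peptide substrate, 1 mM ATP. Detection after 60 min reaction used 2 nM europium antibody with 340 nm excitation. Potency fitted from half-log series, 11 points.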
Sequence of CDK6/CCND1 (Q00534 whole entry): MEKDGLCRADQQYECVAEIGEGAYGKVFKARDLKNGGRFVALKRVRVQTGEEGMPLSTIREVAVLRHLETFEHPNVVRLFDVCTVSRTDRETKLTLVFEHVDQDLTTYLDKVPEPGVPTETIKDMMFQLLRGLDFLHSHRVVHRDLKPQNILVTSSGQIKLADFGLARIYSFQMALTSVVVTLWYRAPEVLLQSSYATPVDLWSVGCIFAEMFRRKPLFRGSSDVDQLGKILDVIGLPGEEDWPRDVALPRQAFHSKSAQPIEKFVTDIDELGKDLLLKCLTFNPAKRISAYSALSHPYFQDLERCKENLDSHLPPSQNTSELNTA
Sequence of CDK6/CCND1 (P24385 whole entry partner): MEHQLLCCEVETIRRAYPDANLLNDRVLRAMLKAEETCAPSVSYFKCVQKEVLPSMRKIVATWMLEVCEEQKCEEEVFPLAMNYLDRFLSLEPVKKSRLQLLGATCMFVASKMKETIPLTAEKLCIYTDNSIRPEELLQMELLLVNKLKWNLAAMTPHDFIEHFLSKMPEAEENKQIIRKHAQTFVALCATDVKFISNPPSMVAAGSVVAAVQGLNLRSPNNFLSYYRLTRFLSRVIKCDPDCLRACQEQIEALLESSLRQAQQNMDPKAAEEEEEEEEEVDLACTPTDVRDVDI

The next assay deals with CDK2/CCNE1 (Homo sapiens, UniProt P24941). The assay is described as follows: CDK2 homogeneous time-resolved fluorescence (HTRF) kinase assay. The settings on record: CDK2/CCNE. The procedure, abridged: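 TR-FRET read-out (665 nm, or 665/615 ratio) of Eu-antibody detection of phospho-4E-BP1 (Thr37/46) ULight peptide. Enzyme 3 nM, ATP 1 mM, peptide 50 nM, 1% DMSO; 60 min reaction at 23 °C after 20 min compound preincubation. IC50 from 11-point half-log titrations, top typically 10 μM.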

Where [1] appears, read: x = IC50 25-250 nM, read-out: CDK2/CCNE IC50 (25-250 nM).
The mark [2] stands for this setting: x = IC50 <25 nM, read-out: CDK2/CCNE IC50 (<25 nM).

Where two headings read alike, the source gives them in different places.

Sequence of CDK4/CCND3 (P11802 whole entry): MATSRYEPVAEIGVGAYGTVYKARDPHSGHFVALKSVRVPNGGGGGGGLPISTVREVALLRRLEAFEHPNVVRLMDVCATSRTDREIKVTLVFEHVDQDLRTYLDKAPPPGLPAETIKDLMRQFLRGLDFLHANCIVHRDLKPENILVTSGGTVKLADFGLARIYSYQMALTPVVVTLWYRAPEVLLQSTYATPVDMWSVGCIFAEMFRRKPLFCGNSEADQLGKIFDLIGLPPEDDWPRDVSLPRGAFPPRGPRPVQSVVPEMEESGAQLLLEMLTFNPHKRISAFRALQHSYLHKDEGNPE
Sequence of CDK4/CCND3 (P30281 whole entry partner): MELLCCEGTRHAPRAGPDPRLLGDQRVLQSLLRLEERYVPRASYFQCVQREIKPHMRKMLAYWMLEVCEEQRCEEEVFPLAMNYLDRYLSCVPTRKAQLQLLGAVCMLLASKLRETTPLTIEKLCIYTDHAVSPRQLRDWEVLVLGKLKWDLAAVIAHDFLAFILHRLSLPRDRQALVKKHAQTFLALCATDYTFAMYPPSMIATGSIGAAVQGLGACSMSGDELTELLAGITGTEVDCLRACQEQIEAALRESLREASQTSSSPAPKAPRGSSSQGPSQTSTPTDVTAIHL

Turning to `CS(=O)(=O)c1ccc(Nc2cc3c(C#Cc4n[nH]c5ncccc45)nccc3cn2)cc1` [Ex 561, 5-((1H-pyrazolo[3,4-b]pyridin-3-yl)ethynyl)-N-(4-(methylsulfonyl)phenyl)-2,6-naphthyridin-3-amine], the IC50 at CDK1/CCNB1 is over 250 nM; on CDK4/CCND3 it was over 250 nM; on CDK6/CCND1, over 250 nM; on CDK2/CCNE1 (setting [1]), 25 to 250 nM.
As to `CC(C)(O)Cn1ncc2c(C#Cc3nccc4cnc(Nc5ccc(S(C)(=O)=O)cc5)cc34)cncc21` [Ex 562, 2-methyl-1-(4-((7-((4-(methylsulfonyl)phenyl)amino)-2,6-naphthyridin-1-yl)ethynyl)-1H-pyrazolo[3,4-c]pyridin-1-yl)propan-2-ol], the IC50 is over 250 nM on CDK1/CCNB1, over 250 nM on CDK4/CCND3, over 250 nM on CDK6/CCND1 and 25 to 250 nM on CDK2/CCNE1 (setting [1]).
Turning to `CS(=O)(=O)c1ccc(Nc2cc3c(C#Cc4ccc(C(F)(F)F)cc4N)nccc3cn2)cc1` [Ex 563, 5-((2-amino-4-(trifluoromethyl)phenyl)ethynyl)-N-(4-(methylsulfonyl)phenyl)-2,6-naphthyridin-3-amine], the IC50 was over 250 nM at CDK1/CCNB1, over 250 nM on CDK4/CCND3, over 250 nM at CDK6/CCND1 and 25 to 250 nM on CDK2/CCNE1 (setting [1]).
Regarding `Cc1c(C#N)cccc1C#Cc1nccc2cnc(Nc3ccc(S(C)(=O)=O)cc3)cc12` [Ex 564, 2-methyl-3-((7-((4-(methylsulfonyl)phenyl)amino)-2,6-naphthyridin-1-yl)ethynyl)benzonitrile], the IC50 is over 250 nM at CDK1/CCNB1, over 250 nM at CDK4/CCND3, over 250 nM at CDK6/CCND1 and 25 to 250 nM at CDK2/CCNE1 (setting [1]).
Consider `Cc1ncccc1C#Cc1nccc2cnc(Nc3ccc(S(C)(=O)=O)cc3)cc12` [Ex 565, 5-((2-methylpyridin-3-yl)ethynyl)-N-(4-(methylsulfonyl)phenyl)-2,6-naphthyridin-3-amine], for which the IC50 on CDK1/CCNB1 is over 250 nM; on CDK4/CCND3, over 250 nM; at CDK6/CCND1, over 250 nM; at CDK2/CCNE1 (setting [1]), 25 to 250 nM.
`CS(=O)(=O)c1ccc(Nc2cc3c(C#Cc4ccc(N5CCOCC5)nc4)nccc3cn2)cc1` [Ex 566, N-(4-(methylsulfonyl)phenyl)-5-((6-morpholinopyridin-3-yl)ethynyl)-2,6-naphthyridin-3-amine]: the IC50 was over 250 nM at CDK1/CCNB1, over 250 nM on CDK4/CCND3, over 250 nM at CDK6/CCND1 and 25 to 250 nM on CDK2/CCNE1 (setting [1]).
In the case of `CS(=O)(=O)c1ccc(Nc2cc3c(C#Cc4ccc(C#N)cc4N)nccc3cn2)cc1` [Ex 567, 3-amino-4-((7-((4-(methylsulfonyl)phenyl)amino)-2,6-naphthyridin-1-yl)ethynyl)benzonitrile], the IC50 at CDK1/CCNB1 was over 250 nM; at CDK4/CCND3, over 250 nM; on CDK6/CCND1, over 250 nM; at CDK2/CCNE1 (setting [2]), under 25 nM.
For `COc1cc(C#Cc2nccc3cnc(Nc4ccc(S(C)(=O)=O)cc4)cc23)ncn1` [Ex 568, 5-((6-methoxypyrimidin-4-yl)ethynyl)-N-(4-(methylsulfonyl)phenyl)-2,6-naphthyridin-3-amine], the IC50 at CDK1/CCNB1 is over 250 nM; on CDK4/CCND3, over 250 nM; on CDK6/CCND1, over 250 nM; on CDK2/CCNE1 (x = IC50 >250 nM, read-out: CDK2/CCNE IC50 (>250 nM column)), over 250 nM.
With `CS(=O)(=O)c1ccc(Nc2cc3c(C#Cc4cc(Cl)ncc4N)nccc3cn2)cc1` [Ex 569, 5-((5-amino-2-chloropyridin-4-yl)ethynyl)-N-(4-(methylsulfonyl)phenyl)-2,6-naphthyridin-3-amine], the IC50 is over 250 nM on CDK1/CCNB1, over 250 nM at CDK4/CCND3, over 250 nM on CDK6/CCND1 and 25 to 250 nM at CDK2/CCNE1 (setting [1]).
Turning to `Cc1ccc(C#Cc2nccc3cnc(Nc4ccc(S(C)(=O)=O)cc4)cc23)c(N)c1` [Ex 570, 5-((2-amino-4-methylphenyl)ethynyl)-N-(4-(methylsulfonyl)phenyl)-2,6-naphthyridin-3-amine], the IC50 at CDK1/CCNB1 was over 250 nM; on CDK4/CCND3 it was over 250 nM; on CDK6/CCND1 it was over 250 nM; at CDK2/CCNE1 (setting [2]) it was under 25 nM.
As to `CS(=O)(=O)c1ccc(Nc2cc3c(C#Cc4cc(F)cc(C#N)c4)nccc3cn2)cc1` [Ex 571, 3-fluoro-5-((7-((4-(methylsulfonyl)phenyl)amino)-2,6-naphthyridin-1-yl)ethynyl)benzonitrile], the IC50 on CDK1/CCNB1 was over 250 nM; on CDK4/CCND3, over 250 nM; on CDK6/CCND1 it was over 250 nM; at CDK2/CCNE1 (setting [1]), 25 to 250 nM.
As to `CS(=O)(=O)c1ccc(Nc2cc3c(C#Cc4ccncc4N)nccc3cn2)cc1` [Ex 572, 5-((3-aminopyridin-4-yl)ethynyl)-N-(4-(methylsulfonyl)phenyl)-2,6-naphthyridin-3-amine], the IC50 at CDK1/CCNB1 is over 250 nM; at CDK4/CCND3, over 250 nM; on CDK6/CCND1, over 250 nM; on CDK2/CCNE1 (setting [2]) it was under 25 nM.
For the compound `CS(=O)(=O)c1ccc(Nc2cc3c(C#Cc4n[nH]c5ccccc45)nccc3cn2)cc1` [Ex 573, 5-((1H-indazol-3-yl)ethynyl)-N-(4-(methylsulfonyl)phenyl)-2,6-naphthyridin-3-amine], the IC50 on CDK1/CCNB1 was over 250 nM; on CDK4/CCND3 it was over 250 nM; at CDK6/CCND1, over 250 nM; at CDK2/CCNE1 (setting [1]), 25 to 250 nM.
As for `CS(=O)(=O)c1ccc(Nc2cc3c(C#Cc4cnc5cc[nH]c5c4)nccc3cn2)cc1` [Ex 574, 5-((1H-pyrrolo[3,2-b]pyridin-6-yl)ethynyl)-N-(4-(methylsulfonyl)phenyl)-2,6-naphthyridin-3-amine], the IC50 at CDK1/CCNB1 was over 250 nM; on CDK4/CCND3, over 250 nM; at CDK6/CCND1, over 250 nM; at CDK2/CCNE1 (setting [2]), under 25 nM.
For the compound `CS(=O)(=O)c1ccc(Nc2cc3c(C#Cc4cncc(Cl)c4N)nccc3cn2)cc1` [Ex 575, 5-((4-amino-5-chloropyridin-3-yl)ethynyl)-N-(4-(methylsulfonyl)phenyl)-2,6-naphthyridin-3-amine], the IC50 at CDK1/CCNB1 is over 250 nM; at CDK4/CCND3 it was over 250 nM; at CDK6/CCND1, over 250 nM; on CDK2/CCNE1 (setting [1]) it was 25 to 250 nM.
`CS(=O)(=O)c1ccc(Nc2cc3c(C#Cc4c(N)cccc4Cl)nccc3cn2)cc1` [Ex 576, 5-((2-amino-6-chlorophenyl)ethynyl)-N-(4-(methylsulfonyl)phenyl)-2,6-naphthyridin-3-amine]: the IC50 at CDK1/CCNB1 is over 250 nM; at CDK4/CCND3 it was over 250 nM; at CDK6/CCND1, over 250 nM; on CDK2/CCNE1 (setting [1]), 25 to 250 nM.
Consider `CS(=O)(=O)c1ccc(Nc2cc3c(C#Cc4cnc5ccc(Cl)nn45)nccc3cn2)cc1` [Ex 578, 5-((6-chloroimidazo[1,2-b]pyridazin-3-yl)ethynyl)-N-(4-(methylsulfonyl)phenyl)-2,6-naphthyridin-3-amine], for which the IC50 at CDK1/CCNB1 was over 250 nM; on CDK4/CCND3 it was over 250 nM; at CDK6/CCND1 it was over 250 nM; at CDK2/CCNE1 (setting [1]), 25 to 250 nM.
With `COc1ncccc1C#Cc1nccc2cnc(Nc3ccc(S(C)(=O)=O)cc3)cc12` [Ex 579, 5-((2-methoxypyridin-3-yl)ethynyl)-N-(4-(methylsulfonyl)phenyl)-2,6-naphthyridin-3-amine], the IC50 on CDK1/CCNB1 was over 250 nM; at CDK4/CCND3 it was over 250 nM; on CDK6/CCND1 it was over 250 nM; at CDK2/CCNE1 (setting [1]) it was 25 to 250 nM.
Regarding `CS(=O)(=O)c1ccc(Nc2cc3c(C#Cc4ccnc(N)c4Cl)nccc3cn2)cc1` [Ex 580, 5-((2-amino-3-chloropyridin-4-yl)ethynyl)-N-(4-(methylsulfonyl)phenyl)-2,6-naphthyridin-3-amine], the IC50 was over 250 nM at CDK1/CCNB1, over 250 nM at CDK4/CCND3, over 250 nM on CDK6/CCND1 and under 25 nM at CDK2/CCNE1 (setting [2]).
With `Cc1ccc(C#Cc2nccc3cnc(Nc4ccc(S(C)(=O)=O)cc4)cc23)c(N)n1` [Ex 581, 5-((2-amino-6-methylpyridin-3-yl)ethynyl)-N-(4-(methylsulfonyl)phenyl)-2,6-naphthyridin-3-amine], the IC50 on CDK1/CCNB1 was over 250 nM; on CDK4/CCND3, over 250 nM; at CDK6/CCND1, over 250 nM; on CDK2/CCNE1 (setting [1]), 25 to 250 nM.
Take `Cc1cc(C#Cc2nccc3cnc(Nc4ccc(S(C)(=O)=O)cc4)cc23)n[nH]1` [Ex 582, 5-((5-methyl-1H-pyrazol-3-yl)ethynyl)-N-(4-(methylsulfonyl)phenyl)-2,6-naphthyridin-3-amine]: the IC50 on CDK1/CCNB1 was over 250 nM; at CDK4/CCND3, over 250 nM; at CDK6/CCND1 it was over 250 nM; on CDK2/CCNE1 (setting [1]), 25 to 250 nM.

Source of the values: patent US20260325533A1, “CDK INHIBITOR COMPOUNDS” (ALEKSIA THERAPEUTICS, INC., priority 2023, published 2026).
